Experimental data: the supplement of paper PMC10307832

Tests used:
Test in all cases: relative viability (nuclei count vs DMSO), 5 days (fraction); higher = more cells survive
[1] = compound: CC(=O)Nc1cccc(-n2c(=O)n(C3CC3)c(=O)c3c(Nc4ccc(I)cc4F)n(C)c(=O)c(C)c32)c1 [Trametinib] + CS(=O)(=O)N1CCN(Cc2cc3nc(-c4cccc5[nH]ncc45)nc(N4CCOCC4)c3s2)CC1 [Pictilisib] (partner 1 µM)
In short: (§1)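 Relative viability was taken as the ratio of nuclei in treated wells to nuclei in vehicle wells. Lung cancer cell lines in 1536-well plates received compounds by pin tool one day after seeding, either one drug alone or a fixed anchor-drug dose plus five library-drug doses (not always all listed) in √10 steps. Nuclei were counted on 4× images after 5 days of treatment, and values are medians of duplicate plates.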

[2] = compound: CC(=O)Nc1cccc(-n2c(=O)n(C3CC3)c(=O)c3c(Nc4ccc(I)cc4F)n(C)c(=O)c(C)c32)c1 [Trametinib] + Cc1nc(Nc2ncc(C(=O)Nc3c(C)cccc3Cl)s2)cc(N2CCN(CCO)CC2)n1 [Dasatinib] (partner 0.075 µM)
In short: as §1

[3] = compound: CN1C=C(C2=CC=CC=C21)/C=C\3/C4=C(C=CC=N4)NC3=O + COc1cccc2cc(-c3nc([C@H]4CC[C@H](C(=O)O)CC4)n4ncnc(N)c34)[nH]c12 [OSI-027] (partner 0.5 µM)
In short: as §1

[4] = compound: CN1C=C(C2=CC=CC=C21)/C=C\3/C4=C(C=CC=N4)NC3=O + N=C(N)NC(=N)NCCc1ccccc1 [Phenformin] (partner 250 µM)
In short: as §1

Cell Line	relative viability ([1]; first compound 0.0025 µM)	relative viability ([1]; first compound 0.007906 µM)	relative viability ([1]; first compound 0.025 µM)	relative viability ([1]; first compound 0.07906 µM)	relative viability ([1]; first compound 0.25 µM)	relative viability ([2]; first compound 0.0025 µM)	relative viability ([2]; first compound 0.007906 µM)	relative viability ([2]; first compound 0.025 µM)	relative viability ([2]; first compound 0.07906 µM)	relative viability ([2]; first compound 0.25 µM)	relative viability ([3]; first compound 0.02 µM)	relative viability ([3]; first compound 0.06325 µM)	relative viability ([3]; first compound 0.2 µM)	relative viability ([3]; first compound 0.6325 µM)	relative viability ([3]; first compound 2 µM)	relative viability ([4]; first compound 0.02 µM)	relative viability ([4]; first compound 0.06325 µM)	relative viability ([4]; first compound 0.2 µM)	relative viability ([4]; first compound 0.6325 µM)	relative viability ([4]; first compound 2 µM)
201T	0.653	0.625	0.542	0.71	0.615	0.555	0.59	0.579	0.521	0.484	0.773	0.366	0.626	0.835	0.422	0.434	0.451	0.429	0.394	0.422
A549	0.375	0.237	0.179	0.121	0.072											0.16	0.101	0.181	0.114	0.183
A-427	0.632	0.426	0.2	0.184	0.164	0.75	0.397	0.178	0.262	0.171	0.575	0.445		0.549	0.416	0.261	0.309		0.275	0.348
ABC-1	0.552	0.56	0.363	0.458	0.28	0.539	0.467	0.365	0.384	0.371	0.683	0.461	0.273	0.4	0.533	0.226	0.242	0.23	0.244	0.21
BEN	0.487	0.472		0.419	0.426	0.304	0.296	0.228	0.269	0.319	0.282	0.29		0.403	0.276	0.264	0.29		0.255	0.242
CAL-12T	0.348	0.29	0.271	0.279	0.318	0.232	0.219	0.268	0.165	0.104	0.628	0.47	0.525	0.645	0.53	0.507	0.537	0.613	0.612	0.601
COR-L23	0.72	0.756	0.555	0.439	0.308	0.446	0.449	0.502	0.484	0.246	0.713	0.716	0.829	0.723	0.843	0.429	0.396	0.394	0.48	0.441
COR-L 105	0.311	0.343	0.303	0.31	0.315	0.319	0.289	0.194	0.153	0.17	1.01	0.897	0.591	0.746	0.724	0.518	0.444	0.496	0.489	0.486
Calu-6	0.739	0.45	0.193	0.136	0.121															
ChaGo-K-1	0.841	0.47	0.694	0.261	0.461	0.586	0.605	0.567	0.475	0.48	0.56	0.672	0.339	0.613	0.609	0.419	0.492	0.41	0.522	0.471
EBC-1	0.244	0.204	0.134	0.137	0.168															
EKVX	0.363	0.318	0.228	0.214	0.193	0.398	0.492	0.31	0.226	0.221	0.589	0.434	0.855	0.682	0.627	0.206	0.227	0.226	0.201	0.236
EMC-BAC-2	0.517	0.429	0.379	0.423	0.331	0.352	0.407	0.419	0.443	0.365	0.388	0.384	0.391	0.405	0.362	0.538	0.525	0.522	0.475	0.533
EPLC-272H	0.268	0.221	0.175	0.174	0.0951	0.275	0.231	0.215	0.138	0.12	0.219	0.29	0.269		0.309	0.287	0.244	0.242		0.3
H3255	0.436	0.344	0.334	0.237	0.206	0.512	0.334	0.288	0.238	0.346	0.676	0.627	0.532	0.621	0.53	0.384	0.36	0.341	0.327	0.366
HARA	0.384	0.342	0.131	0.207	0.213	0.225	0.275	0.367	0.18	0.185	0.539	0.449		0.505	0.586	0.407	0.412		0.34	0.431
HCC-15	0.596	0.232	0.175	0.158	0.182	0.287	0.214	0.163	0.135	0.121	0.656	0.568	0.582	0.651	0.552	0.422	0.462	0.486	0.448	0.463
HCC-44	0.581	0.428	0.276	0.291	0.272						0.478	0.486		0.455	0.457	0.187	0.122	0.115	0.135	0.136
HCC-78	0.205	0.154	0.185	0.152	0.212	0.359	0.265	0.23	0.294	0.25	0.368	0.335		0.392	0.35	0.545	0.709		0.525	0.614
HCC-366	0.09	0.138	0.102	0.1	0.0818	0.47	0.416	0.32	0.227	0.196	0.678	0.89	0.52	0.852	0.75	0.578	0.641	0.602	0.664	0.667

Cell Line	relative viability ([1]; first compound 0.0025 µM)	relative viability ([1]; first compound 0.007906 µM)	relative viability ([1]; first compound 0.025 µM)	relative viability ([1]; first compound 0.07906 µM)	relative viability ([1]; first compound 0.25 µM)	relative viability ([2]; first compound 0.0025 µM)	relative viability ([2]; first compound 0.007906 µM)	relative viability ([2]; first compound 0.025 µM)	relative viability ([2]; first compound 0.07906 µM)	relative viability ([2]; first compound 0.25 µM)	relative viability ([3]; first compound 0.02 µM)	relative viability ([3]; first compound 0.06325 µM)	relative viability ([3]; first compound 0.2 µM)	relative viability ([3]; first compound 0.6325 µM)	relative viability ([3]; first compound 2 µM)	relative viability ([4]; first compound 0.02 µM)	relative viability ([4]; first compound 0.06325 µM)	relative viability ([4]; first compound 0.2 µM)	relative viability ([4]; first compound 0.6325 µM)	relative viability ([4]; first compound 2 µM)
HCC-827	0.949	0.986	0.959	0.666	0.627	0.301	0.243	0.246	0.144	0.157	0.771	0.662		0.804	0.721	0.405	0.413		0.465	0.388
HOP-62	0.597	0.229	0.128	0.133	0.0772	0.681	0.43	0.249	0.206	0.212	0.712	0.873	0.645	0.875	0.846	0.645	0.678	0.72	0.664	0.752
IA-LM	0.142	0.091	0.073	0.0818	0.0673															
LC-2-ad	0.412	0.444	0.237	0.216	0.195	0.484	0.485	0.502	0.313	0.301	0.81	0.811	0.687	0.803	0.724	0.595	0.546	0.414	0.537	0.549
LCLC-97TM1	0.141	0.135	0.11	0.128	0.0971	0.816	0.44	0.381	0.125	0.171	0.372	0.447	0.542	0.476	0.482	0.462	0.408	0.411	0.442	0.428
LCLC-103H	0.641	0.547	0.451	0.458	0.406	0.498	0.512	0.429	0.402	0.446	0.402	0.416	0.494	0.509	0.461	0.303	0.256	0.317	0.322	0.331
LK-2	0.457	0.571	0.54	0.575	0.294	0.251	0.272	0.239	0.212	0.156			0.184	0.195	0.211				0.56	0.546
LOU-NH91	0.469	0.497	0.479	0.45	0.353	0.528	0.498	0.468	0.426	0.296	0.728	0.688	0.696	0.63	0.7	0.727	0.624	0.623	0.66	0.645
LU99A	0.279	0.318	0.217	0.197	0.197	0.529	0.535	0.376	0.363	0.317	0.298	0.303	0.282	0.255	0.299	0.874	0.846	0.695	0.602	0.8
LXF-289	0.674	0.618	0.424	0.388	0.264	0.192	0.305	0.299	0.28	0.0945	0.857	0.763	0.715	0.731	0.745	0.478	0.515	0.467	0.551	0.522
NCI-H23	0.348	0.357	0.217	0.27	0.189	0.544	0.74	0.293	0.231	0.172	0.497	0.555	0.459	0.538	0.517	0.829	0.77	0.693	0.718	0.797
NCI-H322M	0.522	0.486	0.35	0.344	0.336	0.239	0.239	0.247	0.266	0.284	0.516	0.487	0.4	0.587	0.567	0.689	0.769	0.642	0.838	0.777
NCI-H522						0.892	0.913	0.665	0.724	0.671	0.648	0.743	0.761	0.75	0.835	0.579	0.672	0.703	0.58	0.644
NCI-H1299	0.475	0.47	0.32	0.0746	0.157															
NCI-H1623						0.487	0.449	0.306	0.378	0.618	0.371	0.404	0.359	0.38	0.379	0.631	0.537	0.546	0.513	0.564
NCI-H1648												0.239	0.259	0.258	0.281					
NCI-H1703	0.23	0.224	0.206	0.269	0.258															
NCI-H2342						0.298	0.28		0.3	0.303	0.617	0.616	0.596	0.535	0.65	0.623	0.641	0.486	0.57	0.505
SW 900						0.559	0.652	0.46	0.57	0.238	0.601	0.49		0.6	0.703	0.468	0.434		0.589	0.809
